Assays:
human sperm = assay: Effect of various concentrations on the motility of human sperm; format: cell-based; conditions: for concentration shown to be spermiostatic: motility of human sperm; for spermiostatic effects: lower concentrations of albumin and dextran
Description: The effects of various concentrations of magnesium chloride, calcium chloride, ferrous sulfate, copper sulfate, and ferrous gluconate on the motility of human sperm were studied.

[1] = Effect on viscosity of cervical mucus; conditions: concentrations from 0.310% to a range of 1-2.5%

Compound: [Ca+2].[Cl-].[Cl-] [Calcium chloride]
- concentration shown to be spermiostatic (human sperm): 25 mM

Compound: O=S(=O)([O-])[O-].[Cu+2] [Copper sulfate]
- immobilization of sperm (human sperm; 25 mM solutions): 93.3%
- immobilization of sperm (human sperm; 37.5 mM solutions): completely immobilized all the sperm
- concentration shown to be spermiostatic (human sperm): 6.25 mM

Compound: O=C1O[C@H]([C@@H](O)CO)C(O)=C1O [L-ascorbic acid]
- overall viscosity of the mucus [1]: increases in direct relationship with increasing concentrations

Compound: [Cl-].[Cl-].[Mg+2] [magnesium chloride]
- concentration shown to be spermiostatic (human sperm): 35 mM

Compound: Ferrous sulfate
- concentration that completely arrested the motility of human sperm (human sperm; complete arrest of motility): 10 mM

Compound: albumin
- sperm completely immobilized (human sperm; 20% albumin): ~97%
- sperm completely immobilized (human sperm; 40% albumin): ~97%
- sperm motility (human sperm; albumin concentration 10%): decreased sperm motility almost close to that of 12.5 mM concentration of ferrous gluconate
- spermiostatic effects (human sperm): not significant

Compound: dextran
- sperm immobilized (human sperm; 1.25% solution of dextran): ~95%
- spermiostatic effects (human sperm): not significant

Compound: ferrous gluconate
- immobilization of sperm (human sperm; 25 mM solutions): 97.4%
- immobilization of sperm (human sperm; 37.5 mM solutions): completely immobilized all the sperm
- concentration shown to be spermiostatic (human sperm): 12.5 mM

Compound: ferrous gluconate [dihydrate form of ferrous gluconate]
- onset of spermiostatic effect (human sperm; in the presence of the dihydrate form): immediate

From patent publication US20200315960A1, “DRUG DELIVERY DEVICE AND METHOD” (BIORINGS LLC, priority 2019, published 2020)
